Results published in patent US20170368082A1, “FORMULATIONS OF BRINCIDOFOVIR” (priority 2016, published 2017).
Read-outs that look alike come from different tables or passages of the source.

Test: Phase 2 toxicokinetics of brincidofovir and cidofovir in plasma
Format: in vivo, Sprague-Dawley CD rats
Settings: for Cmax/Dose / Tlast / AUClast/Dose / AUC(0-t) / Cmax / Tmax: brincidofovir in plasma; for concentration at 1 h / concentration at 2 h / concentration at 8 h / concentration at 24 h / concentration at 0 h / AUC(0-t) / Cmax / Tmax: female, Sprague-Dawley CD, rat, plasma; for concentration at 1 h / concentration at 2 h / concentration at 8 h / concentration at 24 h / concentration at 0 h: intravenous; for AUC(0-t) / Cmax / Tmax: iv; for Tmax: read-out: Tmax
Protocol: Plasma samples (108) were collected 2 hours following the initiation of dosing on Day 1 and Day 7 (Group 1), or at 1, 2, 8, and 24 hours following the initiation of dosing on Day 1, and prior to administration and at 2, 8, and 24 hours following the initiation of dosing on Day 7 (Groups 2 and 3), and analyzed to determine the concentrations of brincidofovir and the metabolite, cidofovir), by LC/MS/MS.
Approximately 0.4 mL of whole blood was obtained via the tail vein from each animal at each time point. Animals were not fasted prior to blood collection. Blood was collected into tubes containing K2EDTA anticoagulant and placed on wet ice in an upright position, per facility SOP prior to processing. Plasma was separated by centrifugation (10 minutes at approximately 2000 g, at approximately 2-8° C.). Approximately 0.10 mL of plasma was transferred into a single cryotube appropriately labeled with study number, animal number, time point, date of sampling and sample type. Remaining plasma was transferred into a second cryotube and retained as a backup sample. Plasma frozen at approximately −80±10° C. within approximately 2 hours after collection of each blood sample until analysis. Animals were euthanized (CO2 inhalation) after the final blood collection.
In general, TK parameters were estimated using mean plasma concentrations of brincidofovir and cidofovir derived from the composite blood sampling design using Phoenix WinNonLin (V 6.3).
A composite blood sampling design was used such that each rat was sampled twice per sampling day. Blood was collected via tail vein from unanesthetized animals into tubes containing anticoagulant and placed on wet ice in an upright position. Animals were not fasted prior to blood collection. Plasma was separated by centrifugation (for 10 minutes at approximately 2000 g, at approximately 2-8° C.), and transferred into individually labeled cryotubes. All cryotubes containing the collected plasma samples were appropriately labeled as to study number, animal number, time point, date of sampling and sample type. All plasma samples were obtained and frozen at approximately −80° C. (±10° C.) within approximately 2 hours after collection of each blood sample until analysis.
Rat plasma bioanalysis was conducted by Pyxant Laboratories. Plasma samples were analyzed for concentrations of brincidofovir and cidofovir using a method based upon protein precipitation extraction followed by LC-MS/MS analysis; calibration ranges for brincidofovir and cidofovir were 1.00-1500 ng/mL and 5.00-750 ng/mL, respectively, (Pyxant study number 3025) for a 50 μL aliquot of rat plasma. Sample analysis for ISR was not performed as part of this non-GLP study.
For the generation of Mean Profiles, all sample concentrations that were below the limit of quantitation (BLQ) were set to 0.
All pharmacokinetic parameter estimates were completed using a Non-Compartmental Model (Model 200-202 for IV infusion administration). The AUClast and AUCinf were calculated using the linear up log down trapezoidal rule.

[1] = 1 mg/kg 2-hour IV infusion, Male rats, Day 1
[2] = 1 mg/kg 2-hour IV infusion, Male rats, Day 7
[3] = 15 mg/kg 2-hour IV infusion, Female rats, Day 1
[4] = 15 mg/kg 2-hour IV infusion, Female rats, Day 7
[5] = 15 mg/kg 2-hour IV infusion, Male rats, Day 1
[6] = 15 mg/kg 2-hour IV infusion, Male rats, Day 7
[7] = 1 mg/kg, 1 mg/kg 2-hour IV infusion, Female rats, Day 1
[8] = 1 mg/kg, 1 mg/kg 2-hour IV infusion, Female rats, Day 7

CCCCCCCCCCCCCCCCOCCCOP(=O)(O)CO[C@H](CO)Cn1ccc(N)nc1=O [Brincidofovir]
Cmax/Dose [1]: 235 (ng/mL)/(mg/kg)
Tlast [1]: 2 h
Cmax/Dose [2]: 208 (ng/mL)/(mg/kg)
Tlast [2]: 2 h
AUClast/Dose [3]: 491 (h*ng/mL)/(mg/kg)
Cmax/Dose [3]: 231 (ng/mL)/(mg/kg)
Tlast [3]: 24 h
AUClast/Dose [4]: 228 (h*ng/mL)/(mg/kg)
Cmax/Dose [4]: 110 (ng/mL)/(mg/kg)
Tlast [4]: 24 h
AUClast/Dose [5]: 585 (h*ng/mL)/(mg/kg)
Cmax/Dose [5]: 291 (ng/mL)/(mg/kg)
Tlast [5]: 24 h
AUClast/Dose [6]: 273 (h*ng/mL)/(mg/kg)
Cmax/Dose [6]: 127 (ng/mL)/(mg/kg)
Tlast [6]: 24 h
concentration at 1 h (1 mg/kg, brincidofovir 1 mg/kg, Female, Day 1, 1 h, read-out: brincidofovir Imputed Mean Concentration (IMC)): 137 ng/mL
concentration at 1 h (1 mg/kg, brincidofovir 1 mg/kg, Female, Day 1, 1 h, read-out: brincidofovir Mean Concentration (MC)): 137 ng/mL
concentration at 2 h (1 mg/kg, brincidofovir 1 mg/kg, Female, Day 1, 2 h, read-out: brincidofovir Imputed Mean Concentration (IMC)): 191 ng/mL
concentration at 2 h (1 mg/kg, brincidofovir 1 mg/kg, Female, Day 1, 2 h, read-out: brincidofovir Mean Concentration (MC)): 191 ng/mL
concentration at 8 h (1 mg/kg, brincidofovir 1 mg/kg, Female, Day 1, 8 h, read-out: brincidofovir Imputed Mean Concentration (IMC)): 1.25 ng/mL
concentration at 8 h (1 mg/kg, brincidofovir 1 mg/kg, Female, Day 1, 8 h, read-out: brincidofovir Mean Concentration (MC)): 1.25 ng/mL
concentration at 24 h (1 mg/kg, brincidofovir 1 mg/kg, Female, Day 1, 24 h, read-out: brincidofovir Mean Concentration (MC)): 0 ng/mL
concentration at 0 h (1 mg/kg, brincidofovir 1 mg/kg, Female, Day 7, 0 h, read-out: brincidofovir Imputed Mean Concentration (IMC)): 0 ng/mL
concentration at 0 h (1 mg/kg, brincidofovir 1 mg/kg, Female, Day 7, 0 h, read-out: brincidofovir Mean Concentration (MC)): 0 ng/mL
concentration at 2 h (1 mg/kg, brincidofovir 1 mg/kg, Female, Day 7, 2 h, read-out: brincidofovir Imputed Mean Concentration (IMC)): 95.4 ng/mL
concentration at 2 h (1 mg/kg, brincidofovir 1 mg/kg, Female, Day 7, 2 h, read-out: brincidofovir Mean Concentration (MC)): 95.4 ng/mL
concentration at 8 h (1 mg/kg, brincidofovir 1 mg/kg, Female, Day 7, 8 h, read-out: brincidofovir Imputed Mean Concentration (IMC)): 2.19 ng/mL
concentration at 8 h (1 mg/kg, brincidofovir 1 mg/kg, Female, Day 7, 8 h, read-out: brincidofovir Mean Concentration (MC)): 2.19 ng/mL
concentration at 1 h (1 mg/kg, brincidofovir 1 mg/kg 2-h IV infusion, female rats, Day 1, 1 h, BLQ imputed as zero, read-out: Imputed Concentration, Mean): 137 ng/mL
concentration at 1 h (1 mg/kg, brincidofovir 1 mg/kg 2-h IV infusion, female rats, Day 1, 1 h, BLQ imputed as zero, read-out: Imputed Concentration, individual animals): 109 ng/mL
concentration at 2 h (1 mg/kg, brincidofovir 1 mg/kg 2-h IV infusion, female rats, Day 1, 2 h, BLQ imputed as zero, read-out: Imputed Concentration, Mean): 191 ng/mL
concentration at 2 h (1 mg/kg, brincidofovir 1 mg/kg 2-h IV infusion, female rats, Day 1, 2 h, BLQ imputed as zero, read-out: Imputed Concentration, individual animals): 253 ng/mL
concentration at 8 h (1 mg/kg, brincidofovir 1 mg/kg 2-h IV infusion, female rats, Day 1, 8 h, BLQ imputed as zero, read-out: Imputed Concentration, Mean): 1.25 ng/mL
concentration at 24 h (1 mg/kg, brincidofovir 1 mg/kg 2-h IV infusion, female rats, Day 1, 24 h, BLQ imputed as zero, read-out: Imputed Concentration, Mean): 0 ng/mL
concentration at 24 h (1 mg/kg, brincidofovir 1 mg/kg 2-h IV infusion, female rats, Day 1, 24 h, BLQ imputed as zero, read-out: Imputed Concentration, individual animals): 0 ng/mL
concentration at 0 h (1 mg/kg, brincidofovir 1 mg/kg 2-h IV infusion, female rats, Day 7, 0 h, BLQ imputed as zero, read-out: Imputed Concentration, individual animals): 0 ng/mL
concentration at 2 h (15 mg/kg, 15 mg/kg, female rats, Day 1, 2 h, read-out: IC (Imputed Concentration), individual animals): 2460 ng/mL
concentration at 8 h (15 mg/kg, 15 mg/kg, female rats, Day 1, 8 h, read-out: C (Concentration), individual animals): 5.05 ng/mL
concentration at 8 h (15 mg/kg, 15 mg/kg, female rats, Day 1, 8 h, read-out: IC (Imputed Concentration), individual animals): 5.05 ng/mL
concentration at 24 h (15 mg/kg, 15 mg/kg, female rats, Day 1, 24 h, read-out: C (Concentration), individual animals): 2.32 ng/mL
concentration at 24 h (15 mg/kg, 15 mg/kg, female rats, Day 1, 24 h, read-out: IC (Imputed Concentration), individual animals): 2.32 ng/mL
concentration at 8 h (15 mg/kg, 15 mg/kg, female rats, Day 7, 8 h, read-out: C (Concentration), individual animals): 5.32 ng/mL
concentration at 8 h (15 mg/kg, 15 mg/kg, female rats, Day 7, 8 h, read-out: IC (Imputed Concentration), individual animals): 5.32 ng/mL
concentration at 24 h (15 mg/kg, 15 mg/kg, female rats, Day 7, 24 h, read-out: C (Concentration), individual animals): 2.37 ng/mL
AUC(0-t) [7]: 459 ng·h/mL
Cmax [7]: 191 ng/mL
Tmax [7]: 2 h
AUC(0-t) [8]: 244 ng·h/mL
Cmax [8]: 95.4 ng/mL
Tmax [8]: 2 h
